{"source": "patent EP2408450B1", "about": "“ALPHA-(N-SULFONAMIDO)ACETAMIDE COMPOUND AS AN INHIBITOR OF BETA AMYLOID PEPTIDE PRODUCTION” (Bristol-Myers Squibb Company, priority 2009, dated 2010)", "target": "T1, human pregnane-X receptor (Homo sapiens, UniProt O75469)", "T1 construct": "expressed in transfected cells; host or cells: HepG2 cells, transiently transfected with PXR-pcDNA3 and CYP3A-Luc", "T1 sequence (O75469 1-434)": "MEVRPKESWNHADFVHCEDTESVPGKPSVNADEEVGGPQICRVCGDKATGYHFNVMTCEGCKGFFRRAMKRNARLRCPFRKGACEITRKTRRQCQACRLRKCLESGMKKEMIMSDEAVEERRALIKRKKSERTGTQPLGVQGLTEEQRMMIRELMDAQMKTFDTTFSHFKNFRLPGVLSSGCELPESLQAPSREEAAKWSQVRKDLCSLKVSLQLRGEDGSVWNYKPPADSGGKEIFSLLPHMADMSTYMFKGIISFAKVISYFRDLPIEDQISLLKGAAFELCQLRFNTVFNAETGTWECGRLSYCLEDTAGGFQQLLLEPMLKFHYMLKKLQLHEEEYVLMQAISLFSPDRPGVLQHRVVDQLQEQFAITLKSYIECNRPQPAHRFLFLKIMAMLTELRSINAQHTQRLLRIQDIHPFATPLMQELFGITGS", "test": "PXR transactivation assay (CYP3A-Luc reporter in HepG2 cells)", "assay_type": "cell-based", "conditions": "hPXR transactivation assay", "source_text": "Pregnane X receptor (PXR) is a nuclear hormone receptor principally responsible for the induction of cytochrome P450 (CYP) 3A4, which plays a major role in metabolizing many clinically prescribed drugs. It is well known that the induction of CYP3A4 can cause either drug-drug interaction by increasing the metabolic clearance of co-administered CYP3A4 substrates (Bertilsson, G. et al., Proc. Nat. Acad. Sci. USA, 95:12208-12213 (1998); Lehmann, J.M. et al., J. Clin. Invest., 102:1016-1023 (1998)) or can cause loss of drug exposure due to autoinduction. Characterizing the induction potential of discovery or development drug candidates has become an important screen throughout the pharmaceutical industry. […]\nCells in each flask are washed with PBS and 4 mL of Trypsin-EDTA (0.25%) is added and incubated for one minute at room temperature. […] Cells are then counted and diluted in media to 3.0 x 10^5 cells/mL. […] After fifteen minutes, plates are read on a Viewlux (Perkin-Elmer) plate reader.\nRifampicin (10 µM), a well known agonist of PXR, is included in each plate as an internal standard and positive control. The data was then expressed as percent activation (%Act), where the total signal is the signal from the 10 µM rifampicin and the blank signal is that from the DMSO vehicle. %Act = (Compound signal-Blank signal)/(Toal signal-Blank signal) × 100% [formula] […]", "data": [{"molecule": "NC(=O)[C@@H](CCC(F)(F)F)N(Cc1ccc(-c2ncon2)cc1F)S(=O)(=O)c1ccc(Cl)cc1", "note": "[(2R)-2-[[(4-chlorophenyl)sulfonyl][[2-fluoro-4-(1,2,4-oxadiazol-3-yl)phenyl]methyl]amino]-5,5,5-trifluoropentanamide]", "values": [{"measurement": "EC20A (20% of the Rifampicin response at 10 µM)", "result": 6.9, "unit": "µM"}, {"measurement": "EC60A (60% of the Rifampicin response at 10 µM)", "result": "greater than 16.7 µM"}]}]}
